Each structure is given as a SMILES string.

Assay [1] relates to ADCY3/ADCY6 double KO HEK293 cells with stable expression of cAMPr. Nature of the assay: cAMPr reporter assay. The conditions noted are these: 500 μM. Type of assay: cell-based, human. (In a reporter assay the amount or activity of a reporter protein is the signal.)
In assay [2] the test system is WT and BVES-KO skeletal muscles. Nature of the assay: Autophagic flux assay (colchicine), LC3B Western blot in GA muscles. Type of assay: in vivo, mouse. The settings on record: 0.4 mg/kg I.P. daily 7 days. The protocol: Autophagic flux assay. A stock solution of colchicine (4 mg/ml in sterile ddH2O, C9754, Sigma-Aldrich) was prepared and stored at −20° C. until the day of treatment. Immediately prior to administration, the colchicine stock solution was diluted to 0.1 mg/mL in sterile ddH2O water. An equal volume of colchicine (0.4 mg/kg) or vehicle was administered to mice (6 weeks old) daily via I.P. injection for 7 days. Muscle tissues were harvested from treated mice on the day after the final treatment.
Western blot. The cells and tissues were homogenized/lysed with cold RIPA buffer supplemented with protease inhibitors, and the extracted proteins were quantified by DC™ Protein Assay Reagent (Bio-Rad, Hercules, CA). The membrane extraction was performed using the Membrane Protein Extraction Kit (ab65400, Abcam, Waltham, MA) according to the manufacturer's instruction. The extracted protein samples were separated by stain-free SDS-PAGE gels (Bio-Rad, 4-15%) and transferred onto Nitrocellulose Membranes (0.45 μm). The membrane was incubated with the primary antibodies (Table 3) at 4° C. overnight. Secondary HRP-conjugated goat anti-mouse (1:4000) and goat anti-rabbit (1:4000) antibodies were obtained from Cell Signaling Technology (Danvers, MA). […] Western blots were quantified using Image Lab 6.0.1 software (Bio-Rad Laboratories, Hercules, CA) according to the manufacturer's instruction.
(Immunoblotting shows a protein as a band on a membrane.)

Another assay concerns BVES-KO mice. Briefly: Bortezomib treatment of BVES-KO mice. Type of assay: in vivo, mouse. The settings on record: vs vehicle. The protocol: Histology analysis and immunofluorescence staining. The skeletal muscles were embedded in optimal cutting temperature (OCT) compound, flash frozen using isopentane chilled in liquid nitrogen and kept at −80° C. until used. Cryosections were prepared using a cryostat Leica CM3054. For hematoxylin and eosin (H&E), transversely oriented sections (10 μm) were cut at mid-point, stained and imaged using a Nikon Ti-E inverted fluorescence microscope equipped with a Lumenera Infinity Color CCD camera and a Nikon Super Fluor 20×0.75 NA objective lens (Nikon Inc., Melville, NY) as previously described.
For immunofluorescence staining, frozen tissue sections (10 μm) were fixed with 4% paraformaldehyde for 10 minutes at room temperature. After washing with PBS, the slides were blocked with 5% BSA/PBS for one hour. The slides were incubated with the indicated primary antibodies (Table 3) at 4° C. overnight. After extensive washing with PBS, the slides were incubated with the secondary antibodies (1:400) (Table 3) for one hour at room temperature. The slides were sealed with […] Antifade Mounting Medium with DAPI (Vector Laboratory, Burlingame, CA). The images were taken under a LSM780 microscope (Zeiss, Germany) and assembled to figures using Adobe Photoshop 21.0.2 (Adobe, San Jose, CA). Fiber size and CNF quantification were carried out using Myosight with manual calibration on the entire cross-sections of GA muscles.
Bortezomib Treatment. Bortezomib was purchased from Selleck Chemicals (#S0130, Houston, TX). A stock solution (5 mg/ml) dissolved in the vehicle 2% DMSO, 30% PEG300 and ddH2O were aliquoted and stored at […]. An equal volume of Bortezomib (0.8 mg/kg diluted with the vehicle) or vehicle was I.P. injected once bi-weekly into BVES-KO mice (N=6 per treatment) at 12 weeks age, respectively. After two months of treatment, force measurement and exercise evaluation were performed. Mice were sacrificed after 3-month treatment. QU and GA muscles were processed for histopathology, immunofluorescence and Western blot analyses.
Force measurement. The muscle contractility was measured using an in vivo muscle test system (Aurora Scientific Inc) as previously described. Briefly, mice were anesthetized with 2% (w/v) isoflurane and anesthesia was maintained by 2% isoflurane (w/v) during muscle contractility measurement. Maximum plantarflexion tetanic torque was measured during a train of supramaximal electric stimulations of the tibial nerve (pulse frequency 150 Hz, pulse duration 0.2 ms) using the DMA v5.501 (Aurora Scientific Inc).
Exercise and exhaustion assay. Time and distance to exhaustion was performed as previously described. Briefly, prior to training, the randomized mice were firstly acclimated to the treadmill (LE8710MTS, Harvard Apparatus) for two consecutive days at slow speed (10 cm/s) for 5 min. On the third day, mice were placed on an uphill) (15° treadmill with an initial speed of 10 cm/s, increased every 4 min by 5 cm/s. Mice were considered to be exhausted when the animal's hindlimbs remained on the electric grid for more than 10 s. Time and distance were automatically collected via the software SeDaCOM (Harvard Apparatus).

Consider `CC(C)Cn1c(=O)n(C)c(=O)c2[nH]cnc21` [IBMX, 3-isobutyl-1-methylxanthine], for which the “cAMP (cAMPr fluorescence) change” value is given as “gradual increase” in assay [1] (ADCY9-transfected cells); “substantially reduced cAMP elevation” in assay [1] (cells co-transfected with BVES and ADCY9).

For the molecule `COc1cc2c(c(OC)c1OC)-c1ccc(OC)c(=O)cc1[C@@H](NC(C)=O)CC2` [colchicine], the “LC3B (Western blot)” value in assay [2] is “significant increase”.

As to `CC(C)C[C@H](NC(=O)[C@H](Cc1ccccc1)NC(=O)c1cnccn1)B(O)O` [bortezomib], the body weight result in the assay on BVES-KO mice (0.8 mg/kg I.P. once bi-weekly, 2 months) is given as “significantly increased”. For the same molecule, in the assay with BVES-KO mice (0.8 mg/kg I.P., 2 months), the “fiber size (CSA, GA)” value is listed as “significantly increased”; the “muscle contractility (tetanic torque)” value was “enhanced”; the “physical performance on treadmill running (time to exhaustion, total running distance)” value is “improved”. Also, in the assay on BVES-KO mice (0.8 mg/kg I.P.), the “mass of quadriceps and gastrocnemius muscles (normalized to body weight)” value is recorded as “significantly increased”; the “muscle pathology (H&E staining, GA)” value was “remarkably improved”; the “percentage of CNFs (GA)” value is reported as “reduced”.

For the origin of these results see patent US20250340902A1, “GENE THERAPY FOR BVES-RELATED DISORDERS” (OHIO STATE INNOVATION FOUNDATION, priority 2022, published 2025).
